Measured values published in patent US10947213B1 (Merck Patent GmbH, priority 2015, dated 2021).
Structures can show the parent of a compound that is named as a salt.

target: T1, TLR7/NFKb HEK cells (Homo sapiens, UniProt Q9NYK1); assay: HEK Cell Assay (TLR7/NFKb reporter, Steady-Glo luciferase readout); format: cell-based; conditions: 30 min compound preincubation, then R*48 agonist for 5 hours, read-out: Potency
T1 construct: expressed in transfected cells; host or cells: HEK cells (TLR7/NFKb reporter line)
T1 sequence (Q9NYK1 27-1049): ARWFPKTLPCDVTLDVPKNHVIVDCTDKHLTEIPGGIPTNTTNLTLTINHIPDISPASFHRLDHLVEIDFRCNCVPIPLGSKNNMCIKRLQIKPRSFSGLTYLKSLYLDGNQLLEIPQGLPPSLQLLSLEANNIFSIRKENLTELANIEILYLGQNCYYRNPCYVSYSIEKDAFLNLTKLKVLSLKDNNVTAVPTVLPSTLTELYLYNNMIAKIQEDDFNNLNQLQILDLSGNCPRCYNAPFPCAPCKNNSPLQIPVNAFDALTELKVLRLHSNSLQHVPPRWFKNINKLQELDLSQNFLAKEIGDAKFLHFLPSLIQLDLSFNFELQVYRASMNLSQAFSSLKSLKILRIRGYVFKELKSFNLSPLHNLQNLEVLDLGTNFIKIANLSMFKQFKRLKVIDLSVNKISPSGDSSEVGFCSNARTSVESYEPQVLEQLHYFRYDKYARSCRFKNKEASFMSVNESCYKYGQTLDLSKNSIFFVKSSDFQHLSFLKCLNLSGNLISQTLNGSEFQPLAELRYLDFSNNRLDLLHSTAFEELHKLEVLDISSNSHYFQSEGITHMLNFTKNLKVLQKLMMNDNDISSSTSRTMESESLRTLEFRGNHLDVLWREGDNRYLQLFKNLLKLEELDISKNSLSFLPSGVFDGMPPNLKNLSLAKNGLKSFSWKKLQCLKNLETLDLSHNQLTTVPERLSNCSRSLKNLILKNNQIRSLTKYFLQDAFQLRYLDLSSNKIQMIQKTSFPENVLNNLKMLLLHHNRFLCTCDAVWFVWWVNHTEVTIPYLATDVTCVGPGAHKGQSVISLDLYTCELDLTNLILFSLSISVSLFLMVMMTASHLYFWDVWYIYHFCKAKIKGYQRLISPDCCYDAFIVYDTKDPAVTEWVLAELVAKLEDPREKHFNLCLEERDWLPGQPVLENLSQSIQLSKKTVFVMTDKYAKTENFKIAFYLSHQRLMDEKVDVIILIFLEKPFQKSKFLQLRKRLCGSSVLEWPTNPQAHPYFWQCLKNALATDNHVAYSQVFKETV
How it was run: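 Steady-Glo luminescence after 5 h stimulation with R*48 agonist, following 30 min compound preincubation. Assay run in HEK cells carrying a TLR7/NFKb luciferase reporter, plated at 5000 cells/well and grown 24 h at 37° C (10% CO2) before treatment.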

IC50, 1000 to 10000 nM:
C[C@H]1C[C@@H](NC(=O)CN2CCC(F)(F)CC2)CN(c2ccc(C(F)(F)F)c3nccnc23)C1 [Compound 354, 2-(4,4-difluoropiperidin-1-yl)-N-[(3R,5S)-5-methyl-1-[8-(trifluoromethyl)quinoxalin-5-yl]piperidin-3-yl]acetamide]
CN1CCC(NC2CC(C(F)(F)F)CN(c3ccc(C#N)c4nccnc34)C2)C1=O (single isomer, unassigned) [Compound 224]
N#Cc1ccc(N2C[C@@H](NC(=O)CCC(N)=O)C[C@@H](C(F)(F)F)C2)c2cccnc12 (relative stereo) [Compound 480, cis-N-[1-(8-Cyano-quinolin-5-yl)-5-trifluoromethyl-piperidin-3-yl]-succinamide]
NC1CN(c2ccc(C(F)(F)F)c3ncccc23)CC(F)(F)C1 (single isomer, unassigned) [Compound 528]
C[C@H]1C[C@@H](NC(=O)CN2CCOCC2)CN(c2ccc(F)c3ncccc23)C1 [Compound 470, N-[(3R,5S)-1-(8-Fluoro-quinolin-5-yl)-5-methyl-piperidin-3-yl]-2-morpholin-4-yl-acetamide]
C[C@H]1C[C@@H](NC(=O)NCC2CC(F)(F)C2)CN(c2ccc(C(F)(F)F)c3ncccc23)C1 [Compound 582, 1-(3,3-Difluoro-cyclobutylmethyl)-3-[(3R,5S)-5-methyl-1-(8-trifluoromethyl-quinolin-5-yl)-piperidin-3-yl]-urea]
O=C(CN1CCOCC1)NC1CN(c2ccc(C(F)(F)F)c3ncccc23)CC(F)(F)C1 (centres unmarked) [Compound 512, N-[5,5-Difluoro-1-(8-trifluoromethyl-quinolin-5-yl)-piperidin-3-yl]-2-morpholin-4-yl-acetamide]
N#Cc1ccc(N2C[C@H](N)C[C@H](F)C2)c2nccnc12 [Compound 499, 8-((3R,5S)-3-Amino-5-fluoro-piperidin-1-yl)-quinoxaline-5-carbonitrile hydrochloride]
CC(C)C(=O)NC1CCN(C[C@H]2CN(c3ccnc4nccnc34)C[C@@H](C)O2)CC1 [Compound 61, N-(1-(((2S,6R)-6-methyl-4-(pyrido[2,3-b]pyrazin-8-yl)morpholin-2-yl)methyl)piperidin-4-yl)isobutyramide]
C[C@H]1C[C@@H](NC(=O)CNS(C)(=O)=O)CN(c2ccc(C(F)(F)F)c3ncccc23)C1 [Compound 474, 2-Methanesulfonylamino-N-[(3R,5S)-5-methyl-1-(8-trifluoromethyl-quinolin-5-yl)-piperidin-3-yl]-acetamide]
CC(O)C(=O)N[C@@H]1C[C@H](C)CN(c2ccc(C(F)F)c3nccnc23)C1 (stereo partly drawn) [Compound 79, N-[(3R,5S)-1-[8-(difluoromethyl)quinoxalin-5-yl]-5-methylpiperidin-3-yl]-2-hydroxypropanamide]

IC50, < 1000 nM:
C[C@H]1C[C@@H](NC(=O)CN2CC(O)C2)CN(c2ccc(C(F)(F)F)c3nccnc23)C1 [Compound 296, 2-(3-hydroxyazetidin-1-yl)-N-[(3R,5S)-5-methyl-1-[8-(trifluoromethyl)quinoxalin-5-yl]piperidin-3-yl]acetamide]
C[C@H]1C[C@@H](NC(=O)CC(C)(C)CN)CN(c2ccc(C(F)(F)F)c3ncccc23)C1 [Compound 291, 4-amino-3,3-dimethyl-N-[(3R,5S)-5-methyl-1-[8-(trifluoromethyl)quinolin-5-yl]piperidin-3-yl]butanamide]
CN1CCCC1CNC(=O)C1CCN(c2ccc(C#N)c3ncccc23)CC1 (centres unmarked) [Compound 433, 1-(8-Cyano-quinolin-5-yl)-piperidine-4-carboxylic Acid (1-methyl-pyrrolidin-2-ylmethyl)-amide]
CCCN1CCN(C[C@H]2CN(c3ccnc4nccnc34)C[C@@H](C)O2)CC1 [Compound 52, (2R,6S)-2-methyl-6-((4-propylpiperazin-1-yl)methyl)-4-(pyrido[2,3-b]pyrazin-8-yl)morpholine]
C[C@H]1C[C@@H](NC(=O)C(N)C(F)(F)F)CN(c2ccc(C(F)(F)F)c3ncccc23)C1 (single isomer, unassigned) [Compound 198]
N[C@H]1C[C@@H](C2CC2)CN(c2ccc(C(F)(F)F)c3nccnc23)C1 (relative stereo) [Compound 330, cis-5-cyclopropyl-1-[8-(trifluoromethyl)quinoxalin-5-yl]piperidin-3-amine]
C[C@H]1C[C@@H](NC(C)(C)CO)CN(c2ccc(C#N)c3nccnc23)C1 [Compound 231, 8-[(3R,5S)-3-[(1-hydroxy-2-methylpropan-2-yl)amino]-5-methylpiperidin-1-yl]quinoxaline-5-carbonitrile]
C[C@@H]1C[C@H](C(=O)NCCN2CCN(C)CC2)CN(c2ccc(C#N)c3nccnc23)C1 (relative stereo) [Compound 537, cis-1-(8-Cyano-quinoxalin-5-yl)-5-methyl-piperidine-3-carboxylic acid [2-(4-methyl-piperazin-1-yl)-ethyl]-amide]
C[C@@H]1CN(c2ccc(C#N)c3nccnc23)C[C@H](C(=O)NC2CCN(C)CC2)O1 [Compound 468, (2R,6R)-4-(8-cyanoquinoxalin-5-yl)-6-methyl-N-(1-methylpiperidin-4-yl)morpholine-2-carboxamide]
CC(C(=O)N[C@@H]1C[C@H](C)CN(c2ccc(C(F)(F)F)c3nccnc23)C1)N1CC(N)C1 (single isomer, unassigned) [Compound 370]
C[C@@H]1CN(c2ccnc3nccnc23)C[C@H](CN2CCC(N(C)C)CC2)O1 [Compound 55, N,N-dimethyl-1-(((2S,6R)-6-methyl-4-(pyrido[2,3-b]pyrazin-8-yl)morpholin-2-yl)methyl)piperidin-4-amine]
CN(C)CC(=O)N[C@H]1CN(c2ccc(C#N)c3nccnc23)CC(C)(C)C1 [Compound 217, N-[(3R)-1-(8-cyanoquinoxalin-5-yl)-5,5-dimethylpiperidin-3-yl]-2-(dimethylamino)acetamide]
CC(C)N1CCC(CC(=O)N[C@@H]2C[C@H](C(F)(F)F)CN(c3ccc(C#N)c4ncccc34)C2)CC1 [Compound 585, N-[(3R,5S)-1-(8-Cyano-quinolin-5-yl)-5-trifluoromethyl-piperidin-3-yl]-2-(1-isopropyl-piperidin-4-yl)-acetamide]

IC50, > 10000 nM:
C[C@H]1C[C@@H](NC(=O)C2(C)COC2)CN(c2ccnc3nccnc23)C1 [Compound 37, 3-methyl-N-((3R,5S)-5-methyl-1-(pyrido[2,3-b]pyrazin-8-yl)piperidin-3-yl)oxetane-3-carboxamide]
N#Cc1ccc(N2CC(NC(=O)CCC(=O)N3CCC3)CC(C(F)(F)F)C2)c2cccnc12 (single isomer, unassigned) [Compound 494]
C[C@H]1C[C@@H](NC(=O)C(N)C(F)(F)F)CN(c2ccnc3nccnc23)C1 (single isomer, unassigned) [Compound 114, hydrochloride]
C[C@H]1C[C@@H](NC(=O)CO)CN(c2ccnc3nccnc23)C1 [Compound 15, 2-hydroxy-N-((3R,5S)-5-methyl-1-(pyrido[2,3-b]pyrazin-8-yl)piperidin-3-yl)acetamide]
O=C(CCCN1CCCCC1)N1CCN(c2ccnc3nccnc23)CC1 [Compound 400, 4-Piperidin-1-yl-1-(4-pyrido[2,3-b]pyrazin-8-yl-piperazin-1-yl)-butan-1-one]
C[C@H]1C[C@@H](NC(=O)CNC(C)(C)C)CN(c2ccnc3nccnc23)C1 [Compound 143, 2-(tert-butylamino)-N-[(3R,5S)-5-methyl-1-[pyrido[2,3-b]pyrazin-8-yl]piperidin-3-yl]acetamide]
C[C@H]1C[C@@H](NC(=O)C2(N)CC2)CN(c2ccnc3nccnc23)C1 [Compound 30, 1-amino-N-((3R,5S)-5-methyl-1-(pyrido[2,3-b]pyrazin-8-yl)piperidin-3-yl)cyclopropanecarboxamide hydrochloride]
C[C@H]1C[C@@H](NC2CCOC2)CN(c2ccnc3nccnc23)C1 (stereo partly drawn) [Compound 139, (3R,5S)-5-methyl-N-(oxolan-3-yl)-1-[pyrido[2,3-b]pyrazin-8-yl]piperidin-3-amine]
